Data published in patent publication US7906488B2, “Sphingolipids in treatment and prevention of steatosis and of steatosis or of hepatotoxicity and its sequelae” (Nederlandse Organisatie Voor …, priority 2004, dated 2011).

What was measured:
Assay type in all cases: in vivo
APOE*3Leiden mice [1] = experiment: Plasma ALAT, SAA and fibrinogen (plasma inflammation markers); settings: 1% PS diet
Description: (§1) Plasma parameters: Tail blood samples were collected in EDTA-coated cups, or in paraoxon-coated capillaries to prevent lipolysis as described in Zambon et al. 1993 (Zambon et al. 1993. J. Lipid Res. 34:1021-1028). Plasma lipid parameters were determined using commercial kits for total cholesterol (C) Chol R1 from Roche Diagnostics, Mannheim, Germany), non-esterified free fatty acids (FFA) (NEFA-C; Wako chemicals, Neuss, Germany), Total triglycerides (TG) (Triglyceride GPO-Trinder; Sigma, St. Louis, Mo.), β-hydroxybutyrate (β-HB; Sigma) and ALAT (Reflotron GPT; Roche). Serum amyloid A (SAA) was measured by ELISA (Biosource, Nivelles, Belgium) and fibrinogen by sandwich ELISA, as described in Koopman et al., 2005 (Koopman et al. 2005. Fibrinol Proteol 11:19). For lipoproteins fractionation, groupwise-pooled plasma was size-fractionated by fast protein liquid chromatography (FPLC) on a Superose 6 column (Äkta; Amersham Pharmacia Biotech, Uppsala, Sweden). Fractions were assayed for total C and TG as described. Hepatic VLDL-TG production: The rate of hepatic VLDL-TG production, de novo apoB secretion, and VLDL composition were determined in overnight-fasted mice. Mice were anaesthetized with vetranquil/fentanyl/midazolam i.p., and injected i.v. with 0.1 ml PBS containing 100 μCi Tran^35S-label™ (ICN Biomedicals, Irvine, Calif.) to measure the de novo apoB synthesis. After 30 min, the animals received a Triton WR1339 injection (Tyloxapol, Sigma; 500 mg/kg body weight in 100 μl saline) to prevent systemic lipolysis of newly-secreted hepatic VLDL-TG (Aalto-Setala et al. 1992. J. Clin. Invest 90:1889-1900.27) Blood samples were drawn at 0, 15, 30, 60, and 90 min after Triton WR1339 injection and plasma TG concentrations were determined. After 90 min, the animals were sacrificed and blood was collected by retro-orbital bleeding for isolation of VLDL. VLDL composition: VLDL particles (d<1.019) were separated from other lipoproteins in plasma by density gradient ultra-centrifugation, as described in Jong et al., 1996 (Jong et al. 1996. Arterioscler. Thromb. Vasc. Biol. 16:934-940). Protein content of the VLDL fraction was determined by Lowry's assay (Lowry et al., 1951. J. Biol. Chem. 193:265-275), and TG and total C were determined as described above. Phospholipids and free cholesterol were determined using standard commercial kits (Wako Chemicals, Neuss, Germany). The ^35S-apoB content of VLDL was measured after selective precipitation of apoB with isopropanol as described elsewhere (Li et al. 1996 J. Lipid Res. 37:210-220; Pietzsch et al. 1995. Biochim. Biophys. Acta 1254:77-88). In vivo clearance of VLDL-like TG-rich particles: To determine whether 1% PS accelerates the clearance of TG-rich lipoproteins from plasma, we used radiolabeled emulsion particles as a tool. VLDL-like emulsion particles containing 200 μCi of [^3H]triolein and 20 μCi of [^14C]cholesteryl oleate were prepared and characterized as described in Rensen et al. 1997 (Rensen et al., 1997. J. Lipid Res. 38:1070-1084). Fed mice were anaesthetized as described above and laparotomy was performed. […] After taking the last liver and blood sample, the remainder of the liver, heart, spleen, hind limb muscle, and gonadal, perirenal and intestinal white adipose tissues were harvested. Lipids were extracted overnight at 60° C. in 500 μL of Solvable™, and radioactivity was counted as described in Rensen et al., 1997 (supra). RNA isolation and RT-PCR: Livers from 4 h-fasted mice fed 1% PS-containing diet or control Western-type diet for 5 weeks were removed immediately after sacrifice, flushed with cold 0.9% NaCl and snap frozen in liquid nitrogen. Total RNA was isolated as described by Chomczynski and Sacchi (Chomczynski, P. and Sacchi, N. 1987. Anal. Biochem. 162:156-159) by use of RNA-Bee™ (Campro Scientific, Berlin, Germany). cDNA synthesis was performed according to Bloks et al (Bloks et al., 2001. J. Lipid Res. 42:41-50). […]

APOE*3Leiden mice [2] = experiment: Hepatic mRNA expression levels by RT-PCR (normalized to HPRT); parameters: key to acc1 mRNA, Change / mttp mRNA, Change / dgat1 mRNA, Change / dgat2 mRNA, Change / aco mRNA, Change / ldlr mRNA, Change / apob mRNA, Change / srebp2 mRNA, Change / pparα mRNA, Change / pparγ mRNA, Change / lxrα mRNA, Change / lxrβ mRNA, Change / fxr mRNA, Change / hmgcoAred mRNA, Change / cyp7α mRNA, Change / abca1 mRNA, Change / srebp1c mRNA, Change / fas mRNA, Change: ↑, (upregulated); ↓, (downregulated); n.s., not significant
Description: as §1

APOE*3Leiden mice [3] = experiment: Liver lipid levels, liver appearance and liver histology; settings: 1% PS diet; for Fat deposits / lipid-filled vacuoles in liver cells (HPS-stained sections): compared to controls
[4] = 1% PS diet, 5 weeks, control = 100%

- cyp7α mRNA, Change (APOE*3Leiden mice [2]; 1% PS diet vs control): ↓
- cyp7α hepatic mRNA level (APOE*3Leiden mice [2]; [4]): 7 ± 2%
SMILES: CCCCCCCCCCCCCC[C@@H](O)[C@@H](O)[C@@H](N)CO [PS, phytosphingosine]
- Plasma ALAT, % Δ vs control (APOE*3Leiden mice [1]; 5 weeks): −79%
- Plasma SAA, % Δ vs control (APOE*3Leiden mice [1]; 5 weeks): −74%
- Plasma ALAT (APOE*3Leiden mice [1]; 5 weeks, 4 h-fasted): 41 ± 21 U/l
- Plasma SAA (APOE*3Leiden mice [1]; 5 weeks, 4 h-fasted): 3 ± 0.3 µg/mL
- Plasma fibrinogen (APOE*3Leiden mice [1]; 5 weeks, 4 h-fasted): 2.3 ± 0.7 mg/mL
- Decrease of ALAT levels vs control (APOE*3Leiden mice [1]; p<0.05): 79%
- Decrease of SAA levels vs control (APOE*3Leiden mice [1]; p<0.05): 74%
- abca1 mRNA, Change (APOE*3Leiden mice [2]; 1% PS diet vs control): n.s.
- acc1 mRNA, Change (APOE*3Leiden mice [2]; 1% PS diet vs control): n.s.
- aco mRNA, Change (APOE*3Leiden mice [2]; 1% PS diet vs control): n.s.
- apob mRNA, Change (APOE*3Leiden mice [2]; 1% PS diet vs control): n.s.
- dgat1 mRNA, Change (APOE*3Leiden mice [2]; 1% PS diet vs control): n.s.
- dgat2 mRNA, Change (APOE*3Leiden mice [2]; 1% PS diet vs control): ↑
- fas mRNA, Change (APOE*3Leiden mice [2]; 1% PS diet vs control): ↑
- fxr mRNA, Change (APOE*3Leiden mice [2]; 1% PS diet vs control): ↑
- hmgcoAred mRNA, Change (APOE*3Leiden mice [2]; 1% PS diet vs control): ↑
- ldlr mRNA, Change (APOE*3Leiden mice [2]; 1% PS diet vs control): ↑
- lxrα mRNA, Change (APOE*3Leiden mice [2]; 1% PS diet vs control): ↑
- lxrβ mRNA, Change (APOE*3Leiden mice [2]; 1% PS diet vs control): ↓
- mttp mRNA, Change (APOE*3Leiden mice [2]; 1% PS diet vs control): ↑
- pparα mRNA, Change (APOE*3Leiden mice [2]; 1% PS diet vs control): n.s.
- pparγ mRNA, Change (APOE*3Leiden mice [2]; 1% PS diet vs control): n.s.
- srebp1c mRNA, Change (APOE*3Leiden mice [2]; 1% PS diet vs control): ↑
- srebp2 mRNA, Change (APOE*3Leiden mice [2]; 1% PS diet vs control): ↑
- abca1 hepatic mRNA level (APOE*3Leiden mice [2]; [4]): 79 ± 6%
- acc1 hepatic mRNA level (APOE*3Leiden mice [2]; [4]): 138 ± 29%
- aco hepatic mRNA level (APOE*3Leiden mice [2]; [4]): 56 ± 9%
- apob hepatic mRNA level (APOE*3Leiden mice [2]; [4]): 105 ± 25%
- dgat1 hepatic mRNA level (APOE*3Leiden mice [2]; [4]): 112 ± 27%
- dgat2 hepatic mRNA level (APOE*3Leiden mice [2]; [4]): 185 ± 23%
- fas hepatic mRNA level (APOE*3Leiden mice [2]; [4]): 237 ± 33%
- fxr hepatic mRNA level (APOE*3Leiden mice [2]; [4]): 164 ± 58%
- hmgcoAred hepatic mRNA level (APOE*3Leiden mice [2]; [4]): 444 ± 71%
- ldlr hepatic mRNA level (APOE*3Leiden mice [2]; [4]): 209 ± 14%
- lxrα hepatic mRNA level (APOE*3Leiden mice [2]; [4]): 162 ± 13%
- lxrβ hepatic mRNA level (APOE*3Leiden mice [2]; [4]): 16 ± 8%
- mttp hepatic mRNA level (APOE*3Leiden mice [2]; [4]): 167 ± 5%
- pparα hepatic mRNA level (APOE*3Leiden mice [2]; [4]): 125 ± 10%
- pparγ hepatic mRNA level (APOE*3Leiden mice [2]; [4]): 119 ± 10%
- srebp1c hepatic mRNA level (APOE*3Leiden mice [2]; [4]): 194 ± 3%
- srebp2 hepatic mRNA level (APOE*3Leiden mice [2]; [4]): 317 ± 33%
- Liver cholesteryl ester, % Δ vs control (APOE*3Leiden mice [3]; 5 weeks): −61%
- Liver free cholesterol, % Δ vs control (APOE*3Leiden mice [3]; 5 weeks): −11%
- Liver triglycerides, % Δ vs control (APOE*3Leiden mice [3]; 5 weeks): −56%
- Liver cholesteryl ester (APOE*3Leiden mice [3]; 5 weeks, 4 h-fasted): 5.20 ± 0.79 μg/mg protein
- Liver free cholesterol (APOE*3Leiden mice [3]; 5 weeks, 4 h-fasted): 6.95 ± 0.78 μg/mg protein
- Liver triglycerides (APOE*3Leiden mice [3]; 5 weeks, 4 h-fasted): 15.28 ± 3.84 μg/mg protein
- Fat deposits / lipid-filled vacuoles in liver cells (HPS-stained sections) (APOE*3Leiden mice [3]): less lipid-filled vacuoles
- Fat deposits / lipid-filled vacuoles in liver cells (HPS-stained sections) (APOE*3Leiden mice [3]; listed as phytosphingosine): absence of such fat deposits
- Liver appearance at autopsy (APOE*3Leiden mice [3]; control livers enlarged and yellowish): of normal size, and had a dark-red appearance
- Decrease of liver Free C vs control (APOE*3Leiden mice [3]; p<0.05): 11%
- Decrease of liver cholesteryl esters vs control (APOE*3Leiden mice [3]; p<0.05): 61%
